{"source": "patent US11332439B2", "about": "“Anthocyanin complex synthesized from date palm leaf extract” (UNITED ARAB EMIRATES UNIVERSITY, priority 2020, dated 2022)", "experiment": "Antioxidant activity using DPPH as a free radical (Brand-Williams method)", "type": "biochemical", "conditions": "for antiradical power (ARP): ARP=I/EC50, larger ARP indicates a more efficient antioxidant; for time to reach steady state in reaction with DPPH*: reaction kinetics, absorbance at 515 nm, methanol", "description": "Antioxidant activity of the co-pigmented anthocyanin complex was assessed using DPPH as a free radical according to the Brand-Williams method. Activity of the co-pigmented anthocyanin complex was compared with two known antioxidants, ascorbic acid and Trolox. Concentrations tested are expressed as moles of antioxidant per mole DPPH. Briefly, an antioxidant solution in methanol (0.1 ml) was added to 3.9 ml of a 6×10^−5 mol/L methanol DPPH* solution. The decrease in absorbance was determined at 515 nm at 0 min, 1 min, and every 15 min until the reaction reached a plateau. The extract initial DPPH* concentration (CDPPH) in the reaction medium was calculated from a calibration curve with the equation Abs515 nm=0.0765×(CDPPH)+0.1118 as determined by linear regression (R2=0.9994). For each antioxidant concentration tested, the reaction kinetics were plotted (see FIGS. 6A-6C). From these graphs, the percentage of DPPH* remaining at the steady state was determined, and the values were transferred onto another graph showing percentage of residual DPPH* at the steady state as a function of the molar ratio of antioxidant to DPPH*. Antiradical activity was defined as the amount of antioxidant necessary to decrease the initial DPPH* concentration by 50% (Efficient Concentration=EC50 (mol/L)). The results were analyzed in terms of antiradical power (ARP), with a larger ARP indicating a more efficient antioxidant (ARP=I/EC50 AO/(mol/L) DPPH*)."}
{"smiles": "O=C1O[C@H]([C@@H](O)CO)C(O)=C1O", "note": "[ascorbic acid]", "values": [{"measurement": "antiradical power (ARP)", "value": 0.329}, {"measurement": "time to reach steady state in reaction with DPPH*", "value": "approximately 30 minutes"}]}
{"smiles": "Cc1c(C)c2c(c(C)c1O)CCC(C)(C(=O)O)O2", "note": "(stereo not shown) [Trolox]", "values": [{"measurement": "antiradical power (ARP)", "value": 4.65}, {"measurement": "time to reach steady state in reaction with DPPH*", "value": "less than a minute"}]}
